For one assay, the system named is rat. The assay is described as follows: Anxiolytic activity: elevated plus maze. The following applies: 60 min before test; for nb total d'entrées: 5 min test, control 14 ± 2; for % du temps passé dans le bras ouvert: control 22 % ± 5 %; for % d'entrées dans le bras ouvert: control 28 % ± 5 %. It counts as in vivo. The method, then:
Le potentiel anxiolytique de ces produits a été recherché selon le test "elevated plus maze".
Ce test permet d'étudier le comportement du rat, traité ou non, dans une situation de choix entre un espace clos rassurant ("bras clos") et un espace ouvert générateur d'anxiété ("bras ouvert").
Le test consiste à compter le nombre d'entrées dans chaque bras du labyrinthe durant 5 minutes et à mesurer le temps passé dans le "bras ouvert".
Les rats sont randomisés en lots de 8 et reçoivent les produits à tester par administration intrapéritonéale 60 minutes avant le début du test.

Assay [1] deals with rats mâles, Sprague Dawley. The assay is described as follows: Anti-inflammatory activity: carrageenan-induced paw oedema (plethysmography). The assay is classed as in vivo, rat. The following applies: 30 to 60 min before carrageenan, paw volume 3 h after carrageenan. The procedure: Le potentiel antiinflammatoire des composés a été recherché selon un modèle d'inflammation aigue provoquée par injection sous cutanée de carragénine au niveau de la patte postérieure du rat selon une technique inspirée de WINTER et coll. […] J. Phamacol.
Les rats mâles, Sprague Dawley de 200 à 300 g sont randomisés en lots de 10 et reçoivent les substances à tester par administration intra péritonéale 30 à 60 minutes avant l'injection locale au niveau de la patte arrière gauche de 0,1 ml d'une suspension à 0,5 % de Carragénine dans du sérum physiologique stérile.
La patte arrière droite servant de témoin, reçoit une injection de sérum physiologique.
Trois heures après l'injection de la Carragénine, les animaux sont anesthésiés de façon profonde au Narcorem R et le volume des deux pattes arrières mesuré par Pléthysmographie
Les résultats sont exprimés en pourcentage de variation de volume v% : v% =(volume patte gauche - volume patte droite)/(volume patte droite) [formula] l'activité antiinflammatoire AAI% est définie par : [drawing 54]
On the technique in general: In the carrageenan paw model, swelling and tenderness develop within hours.

In another assay the test system is souris. The assay can be described thus: Analgesic activity: Acetic Acid Writhing test. To be noted: 50 mg/Kg intraperitoneal, 30 min before 0,3 cm³ acetic acid 1% i.p.; control 23 ± 14. The assay is classed as in vivo. The procedure:
Le potentiel analgésique de ces produits a été recherché selon le test dit "Acetic Acid Writhing" qui est basé sur le comptage des crampes abdominales induites chez la souris par injection intra péritonéale d'acide acétique (GAIRIN et Coll J. Pharmacol. Exp. Ther 245, 955 (1988))
Les souris randomisées en lots de 10 reçoivent les produits à tester par voie intra péritonéale 30 minutes avant l'administration intra péritonéale de 0,3 cm³ d'acide acétique à 1%
Le nombre de crampes est compté entre la 5ème et 20ème minutes après l'injection d'acide acétique.
On the technique in general: An intraperitoneal irritant provokes the stretching counted in writhing tests.

Consider `COC(=O)[C@@H]1Cc2c([nH]c3ccccc23)C2(CCN(C)CC2)N1` [[ 3-METHOXYCARBONYLE 1,2,3,4-TETRAHYDRO-β-CARBOLINE (3 S)]-1-SPIRO-4′- [ 1-METHYL PIPERIDINE]], for which, in the assay on rat (100mg/Kg IP), the “nb total d'entrées” value turned out to be 18 ± 1, the “% du temps passé dans le bras ouvert” value is given as 41 % ± 4% and the “% d'entrées dans le bras ouvert” value is 44 % ± 3%. In assay [1] (25 mg/Kg intraperitoneal), the AAI% came out at 14%.
As to `COC(=O)[C@@H]1Cc2c([nH]c3ccccc23)C2(CCCCC2)N1` [[ 3-METHOXYCARBONYLE 1,2,3,4-TETRAHYDRO-β-CARBOLINE (3 S)]-1-SPIRO-CYCLOHEXANE], in the assay on souris, the “Nombre de crampes par minute (entre la 5ème et la 20ème minutes)” value turned out to be 1 ± 1. In the assay on rat (50 mg/Kg IP), the “nb total d'entrées” value is reported as 18 ± 2, the “% du temps passé dans le bras ouvert” value is recorded as 40 % ± 6% and the “% d'entrées dans le bras ouvert” value is listed as 42 % ± 4%. In assay [1] (50 mg/Kg intraperitoneal), the AAI% amounted to 14%.

The record behind these values is patent EP0466548A1, “1,2,3,4,5,6-Hexahydroazepino[4,5-b]indole and 1,2,3,4-tetrahydro-beta-carbolines, processes for their preparation, and pharmaceutical compositions containing them” (ADIR ET COMPAGNIE, priority 1990, dated 1992).
